Data from paper PMC9585589 (ACS Chemical Neuroscience, 2022).
Where “and” joins values, the source holds several entries; their conditions need not be identical. Equal values may be shown once. Read-outs that look alike come from different tables or passages of the source.

Columns and labels:
[1] = target: T1, human CB1 receptor (Homo sapiens, UniProt P21554); experiment: biochemical; format: binding; design: purchased Merck HTS019M; host or cells: Chem-1 cells
Description: Compounds selected for the in vitro binding assay from the first iteration of VS were purchased via MolPort, SIA, Riga, Latvia and Biopurify Phytochemicals Ltd., Chengdu, China. Compounds from the second iteration were purchased from MolPort, SIA, Riga, Latvia and Chemspace, SIA, Riga, Latvia (Supporting Information S3). […] Membranes from cells overexpressing the human CB1 receptor (ChemiScreen CB1 Cannabinoid Receptor Membrane Preparation, cat. no. HTS019M) as well as MgCl2, CaCl2, Trizma Base, NaCl, polyethylenimine (PEI) and dimethyl sulfoxide (DMSO) were purchased from Merck (USA). Bovine serum albumin (BSA) was obtained from Pol-Aura (Poland).
Compounds were dissolved in 50% DMSO and added to the reaction mixture at 10 concentrations equally spaced on a log scale (10^–10 to 10^–4.5 M). The final DMSO concentration was 5%. […] The reaction mixture (500 μL) was incubated for 1.5 h at 30°C . Before harvesting, Whatman GF/B Filter Paper (Brandel, USA) was presoaked with 0.33% PEI buffer for 30 min. and then washed with 2 ml of 50 mM Tris-HCl buffer (pH = 7.4) and 0.5% BSA to minimize non-specific binding. The reaction was terminated by depositing the samples onto GF/B filter paper with the Brandel M-24 Cell Harvester (Brandel, USA). Samples were then rapidly washed 3 times with 2 ml of ice-cold wash buffer (50 mM Tris-HCl pH 7.4, 500 mM NaCl) to separate the bound radioligand from free. Filters were then air-dried for 1 h at 60°C . After drying, filter discs were placed on a flexible 24-well plate and 500 μL of EcoScint-20 scintillant was added to each well. Plates were counted (2 min. per well) in a Trilux MicroBeta^2 2450 scintillation counter (Perkin Elmer, USA). Data were analyzed with GraphPad Prism 5.0 software.[89]

[2] = target: T1, human CB1 receptor; format: biochemical; settings: in words
[3] = design: method as in MedChemExpress product data sheet; settings: ref MedChemExpress product data sheet, cited from earlier work
[4] = target: T1, human CB1 receptor; experiment: biochemical
Method: Ten compound concentrations equally spaced on a log scale (10^–3 to 10^–9 M) were incubated in triplicate with membrane preparations from CHO-K1 cells expressing the human CB1 receptor (5 μg per well) (Perkin Elmer, cat. no. ES-110-M400UA) in an assay buffer containing 50 mM Tris-HCl, pH = 7.4, 1 mM EGTA, 3 mM MgCl2, 100 mM NaCl and 30 μM GDP) in the presence of 0.08 nM [^35S]GTPγS (specific activity: 1250 Ci/mmole, Perkin Elmer). Non-specific binding was determined with 100 μM of unlabeled GTPγS. […] The final DMSO concentration in the assay was 5%. The reaction mixture was incubated for 90 min. at 30°C . Next, the samples were deposited under vacuum with the FilterMate Harvester® (Perkin Elmer, USA) onto Unifilter® GF/B Plates (Perkin Elmer, USA) presoaked with wash buffer (50 mM Tris-HCl, pH = 7.4). The samples were then rapidly washed with 2 ml of wash buffer. Filter plates were dried for 30 min. at 50 °C and 40 μL of MicroScint PS (Perkin Elmer, USA) scintillation fluid was added to each well. Radioactivity was counted in a Trilux MicroBeta^2 counter (Perkin Elmer, USA). Data were analyzed with GraphPad Prism 5.0 software. Curves were fitted with three-parameter non-linear regression model.

[5] = target: CB1; settings: known CB1 ligands; ref 55 (rimonabant), 56 (nabilone), 17 (bazedoxifene); cited from earlier work
[6] = [3H]CP-55,940 displacement, membranes of Chem-1 cells expressing human CB1, read-out: pKi ± SEM (converted)
[7] = CB1 inhibition IC50 (μM, 95% CI)
[8] = CHO-K1 membranes, WIN 55,212-2 (3 μM) as stimulating ligand, read-out: CB1 inhibition pIC50 (converted)
[9] = read-out: CB1 inhibition IC50 (μM, 95% CI)

T1 sequence (P21554 whole entry): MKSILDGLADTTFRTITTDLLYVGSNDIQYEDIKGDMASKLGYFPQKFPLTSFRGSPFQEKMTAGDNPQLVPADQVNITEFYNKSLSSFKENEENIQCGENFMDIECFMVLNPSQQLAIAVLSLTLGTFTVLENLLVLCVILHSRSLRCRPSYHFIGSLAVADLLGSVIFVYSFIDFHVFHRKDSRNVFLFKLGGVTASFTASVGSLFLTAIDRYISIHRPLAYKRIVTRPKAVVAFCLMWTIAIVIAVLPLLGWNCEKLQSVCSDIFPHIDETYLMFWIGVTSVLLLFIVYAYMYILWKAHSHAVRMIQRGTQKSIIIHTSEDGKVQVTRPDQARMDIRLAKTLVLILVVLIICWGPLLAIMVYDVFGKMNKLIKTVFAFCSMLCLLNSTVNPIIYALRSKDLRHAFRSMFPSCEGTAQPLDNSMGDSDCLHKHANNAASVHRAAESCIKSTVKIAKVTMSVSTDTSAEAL

SMILES	Ki ([1]; Ki (μM, 95% CI)) [µM]	Ki [1, 6] [µM]	intrinsic activity [2]	IC50 [4, 8] [µM]	also measured
CC(C)OC(=O)CCC/C=C\C[C@@H]1[C@@H](/C=C/[C@@H](O)COc2cccc(C(F)(F)F)c2)[C@H](O)C[C@@H]1O [Compound 9, travoprost]	3.6	3.98	antagonists	229	Solubility ([3]; 10% DMSO >> 40% PEG300 >> 5% Tween-80 >> 45% saline): ≥ 2.08 mg/mL and ≥ 4.16 mM; Solubility ([3]; 10% DMSO >> 90% (20% SBE-β-CD in saline)): ≥ 2.08 mg/mL and ≥ 4.16 mM; Solubility ([3]; 10% DMSO >> 90% corn oil): ≥ 2.08 mg/mL and ≥ 4.16 mM; Solubility in DMSO ([3]; in vitro): ≥ 41.67 mg/mL and ≥ 83.25 mM; IC50 [4, 7]: 232 µM
COc1cc(O)c2c(=O)cc(-c3ccc(OC)c(-c4c(O)cc(O)c5c(=O)cc(-c6ccc(O)cc6)oc45)c3)oc2c1 [Compound 15, ginkgetin]	8.6	8.71	antagonists		IC50 [4, 7]: 63 µM
COc1cc(-c2c3cn[nH]c3nc3c2oc2c(O)c(O)ccc23)ccc1OCc1ccc(C(C)C)cc1 [Compound 30]	0.8	0.851	mixed CB1 partial agonist/antagonist	2.09	Emax ([4]; CHO-K1 membranes, read-out: CB1 stimulation Emax (%)): 126 ± 5%; EC50 ([4]; CHO-K1 membranes, read-out: CB1 stimulation pEC50 (converted)): 0.417 µM
COc1ccc([C@@H](CC(=O)NCc2cccc3[nH]ccc23)c2cc3c(cc2O)OCO3)cc1 [Compound 32]	6.8	6.31	antagonists	33.1	IC50 [4, 9]: 40 µM
OCCN1CCN(CC/C=C2/c3ccccc3Sc3ccc(C(F)(F)F)cc32)CC1 [Compound 33, Flupentixol]					pKi ± SEM ([1]; [3H]CP-55,940 displacement, membranes of Chem-1 cells expressing human CB1): 4.27 ± 0.04; Ki ([1]; read-out: Ki (μM, 95% CI)): 53 µM; Solubility ([3]; 10% DMSO >> 40% PEG300 >> 5% Tween-80 >> 45% saline, listed as Flupentixol dihydrochloride): ≥ 2.5 mg/mL and ≥ 4.93 mM; Solubility ([3]; 10% DMSO >> 90% (20% SBE-β-CD in saline), listed as Flupentixol dihydrochloride): ≥ 2.5 mg/mL and ≥ 4.93 mM; Solubility ([3]; 10% DMSO >> 90% corn oil, listed as Flupentixol dihydrochloride): ≥ 4.93 mM and ≥ 2.5 mg/mL; Solubility in H2O ([3]; in vitro, need ultrasonic, listed as Flupentixol dihydrochloride): 100 mg/mL and 197.07 mM; Solubility in DMSO ([3]; in vitro, listed as Flupentixol dihydrochloride): 33.33 mg/mL and 65.68 mM
COc1ccccc1C(CCNC(C)c1ccc(Cl)cc1)c1ccc(OC(C)C)cc1 (stereo not drawn) [Compound 34]		2.69	antagonists	3.72	
COc1ccc(-c2cc(-c3ccccc3)cc(-c3ccccc3O)n2)c(OC)c1 [Compound 38]		2.51	antagonists		IC50 [4, 9]: 140 µM
COc1cccc2c1ccn2CCNC(=O)[C@H](Cc1cn(C)c2ccccc12)NC(=O)OC(C)(C)C [Compound 43]	6.6		antagonists	1.86	
Cc1c(-c2ccc(O)cc2)n(Cc2ccc(OCCN3CCCCCC3)cc2)c2ccc(O)cc12 [bazedoxifene]					pKi [5]: 6.1[17]
CCCCCCC(C)(C)c1cc(O)c2c(c1)OC(C)(C)C1CCC(=O)CC21 (stereo not drawn) [nabilone]					pKi [5]: 8.7[56]
